Test results published in patent USRE48711E1, “Apoptosis signal-regulating kinase inhibitors” (Gilead Sciences, Inc., priority 2009, dated 2021).

Molecular target: ASK1 (Apoptosis Signal-Regulating Kinase 1) (Homo sapiens (Human), UniProt Q99683)
Assay: ASK1 (Apoptosis Signal-Regulating Kinase 1) TR-FRET Kinase Assay (Biochemical IC50)
Conditions: TR-FRET, biotin-MBP substrate, 20 min pre-incubation, ATP added as 300 μM solution

Sequence of ASK1 (Apoptosis Signal-Regulating Kinase 1) (Q99683 649-946): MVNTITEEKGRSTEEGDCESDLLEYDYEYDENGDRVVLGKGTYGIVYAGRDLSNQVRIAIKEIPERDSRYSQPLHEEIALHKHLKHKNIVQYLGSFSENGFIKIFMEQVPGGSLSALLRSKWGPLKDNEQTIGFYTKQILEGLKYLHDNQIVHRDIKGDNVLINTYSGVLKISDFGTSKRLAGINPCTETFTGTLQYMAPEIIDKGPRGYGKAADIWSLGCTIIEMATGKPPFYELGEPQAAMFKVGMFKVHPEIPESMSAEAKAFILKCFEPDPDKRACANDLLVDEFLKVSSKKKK

| Structure (SMILES) | IC50 |
| --- | --- |
| CS(=O)(=O)c1ccc(-c2ccnc(C(=O)Nc3cccc(-c4nncn4C4CC4)c3)c2)cc1 [Example 79, N-(3-(4-cyclopropyl-4H-1,2,4-triazol-3-yl)phenyl)-4-(4-(methylsulfonyl)phenyl)picolinamide] | 6 nM |
| O=C(Nc1cccc(-c2nncn2C2CC2)c1)c1cc(-n2cnc3ncccc32)ccn1 [Example 81, N-(3-(4-cyclopropyl-4H-1,2,4-triazol-3-yl)phenyl)-4-(1H-imidazo[4,5-b]pyridin-1-yl)picolinamide] | 16 nM |
| O=C(Nc1cccc(-c2nncn2C2CC2)c1)c1cc(-n2cnc3c2CCCC3)ccn1 [Example 86, N-(3-(4-cyclopropyl-4H-1,2,4-triazol-3-yl)phenyl)-4-(4,5,6,7-tetrahydro-1H-benzo[d]imidazol-1-yl)picolinamide] | 9 nM |
| Cc1c(-c2ccnc(C(=O)Nc3cccc(-c4nncn4C4CC4)c3)c2)cnn1C [Example 90, N-(3-(4-cyclopropyl-4H-1,2,4-triazol-3-yl)phenyl)-4-(1,5-dimethyl-1H-pyrazol-4-yl)picolinamide] | 38 nM |
| CC(C)Oc1ccc(-c2ccnc(C(=O)Nc3cccc(-c4nncn4C4CC4)c3)c2)cn1 [Example 94, N-(3-(4-cyclopropyl-4H-1,2,4-triazol-3-yl)phenyl)-6-isopropoxy-3,4′-bipyridine-2′-carboxamide] | 61 nM |
| O=C(Nc1cccc(-c2nncn2C2CC2)c1)c1cc(-c2ccc(OC3CCC3)nc2)ccn1 [Example 95, 6-cyclobutoxy-N-(3-(4-cyclopropyl-4H-1,2,4-triazol-3-yl)phenyl)-3,4′-bipyridine-2′-carboxamide] | 31 nM |
| O=C(Nc1cccc(-c2nncn2C2CC2)c1)c1cc(-c2ccc(S(=O)(=O)NC3CC3)cc2)ccn1 [Example 96, N-(3-(4-cyclopropyl-4H-1,2,4-triazol-3-yl)phenyl)-4-(4-(N-cyclopropylsulfamoyl)phenyl)picolinamide] | 13 nM |
| NS(=O)(=O)c1ccc(-c2ccnc(C(=O)Nc3cccc(-c4nncn4C4CC4)c3)c2)cc1 [Example 97, N-(3-(4-cyclopropyl-4H-1,2,4-triazol-3-yl)phenyl)-4-(4-sulfamoylphenyl)picolinamide] | 81 nM |
| CNS(=O)(=O)c1ccc(-c2ccnc(C(=O)Nc3cccc(-c4nncn4C4CC4)c3)c2)cc1 [Example 98, N-(3-(4-cyclopropyl-4H-1,2,4-triazol-3-yl)phenyl)-4-(4-(N-methylsulfamoyl)phenyl)picolinamide] | 7 nM |
| CC(C)NS(=O)(=O)c1ccc(-c2ccnc(C(=O)Nc3cccc(-c4nncn4C4CC4)c3)c2)cc1 [Example 99, N-(3-(4-cyclopropyl-4H-1,2,4-triazol-3-yl)phenyl)-4-(4-(N-isopropylsulfamoyl)phenyl)picolinamide] | 17 nM |
| O=C(Nc1cccc(-c2nncn2C2CC2)n1)c1cc(-c2ccc(C3CC3)nc2)ccn1 [Example 100, 6-cyclopropyl-N-(6-(4-cyclopropyl-4H-1,2,4-triazol-3-yl)pyridin-2-yl)-3,4′-bipyridine-2′-carboxamide] | 6 nM |
| CS(=O)(=O)c1ccc(-c2ccnc(C(=O)Nc3cccc(-c4nncn4C4CC4)n3)c2)cc1 [Example 101, N-(6-(4-cyclopropyl-4H-1,2,4-triazol-3-yl)pyridin-2-yl)-4-(4-(methylsulfonyl)phenyl)picolinamide] | 7 nM |

Other lines, results leading:

| IC50 | Structure (SMILES) |
| --- | --- |
| 34 nM | O=C(Nc1cccc(-c2nncn2C2CC2)c1)c1cc(-c2cncc(Cl)c2)ccn1 [Example 76, 5-chloro-N-(3-(4-cyclopropyl-4H-1,2,4-triazol-3-yl)phenyl)-3,4′-bipyridine-2′-carboxamide] |
| 79 nM | CS(=O)(=O)c1cccc(-c2ccnc(C(=O)Nc3cccc(-c4nncn4C4CC4)c3)c2)c1 [Example 77, N-(3-(4-cyclopropyl-4H-1,2,4-triazol-3-yl)phenyl)-4-(3-(methylsulfonyl)phenyl)picolinamide] |
| 572 nM | CS(=O)(=O)c1ccccc1-c1ccnc(C(=O)Nc2cccc(-c3nncn3C3CC3)c2)c1 [Example 78, N-(3-(4-cyclopropyl-4H-1,2,4-triazol-3-yl)phenyl)-4-(2-(methylsulfonyl)phenyl)picolinamide] |
| 36 nM | O=C(Nc1cccc(-c2nncn2C2CC2)c1)c1cc(-c2cccnc2)c2ccccc2n1 [Example 80, N-(3-(4-cyclopropyl-4H-1,2,4-triazol-3-yl)phenyl)-4-(pyridin-3-yl)quinoline-2-carboxamide] |
| 20 nM | O=C(Nc1cccc(-c2nncn2C2CC2)c1)c1cc(-n2cnc3cccnc32)ccn1 [Example 82, N-(3-(4-cyclopropyl-4H-1,2,4-triazol-3-yl)phenyl)-4-(3H-imidazo[4,5-b]pyridin-3-yl)picolinamide] |
| 53 nM | O=C(Nc1cccc(-c2nncn2C2CC2)c1)c1cc(-n2cnc3cnccc32)ccn1 [Example 83, N-(3-(4-cyclopropyl-4H-1,2,4-triazol-3-yl)phenyl)-4-(1H-imidazo[4,5-c]pyridin-1-yl)picolinamide] |
| 13 nM | O=C(Nc1cccc(-c2nncn2C2CC2)c1)c1cc(-c2cnc3ccccc3c2)ccn1 [Example 84, N-(3-(4-cyclopropyl-4H-1,2,4-triazol-3-yl)phenyl)-4-(quinolin-3-yl)picolinamide] |
| 141 nM | O=C(Nc1cccc(-c2nncn2C2CC2)c1)c1cc(-n2nnc3ccccc32)ccn1 [Example 85, 4-(1H-benzo[d][1,2,3]triazol-1-yl)-N-(3-(4-cyclopropyl-4H-1,2,4-triazol-3-yl)phenyl)picolinamide] |
| 69 nM | O=C(Nc1cccc(-c2nncn2C2CC2)c1)c1cc(-c2cnccn2)ccn1 [Example 87, N-(3-(4-cyclopropyl-4H-1,2,4-triazol-3-yl)phenyl)-4-(pyrazin-2-yl)picolinamide] |
| 35 nM | O=C(Nc1cccc(-c2cncn2C2CC2)c1)c1cc(-n2cnc3ccccc32)ccn1 [Example 88, 4-(1H-benzo[d]imidazol-1-yl)-N-(3-(1-cyclopropyl-1H-imidazol-5-yl)phenyl)picolinamide] |
| 26 nM | O=C(Nc1cccc(-c2nncn2C2CC2)c1)c1cc(-c2cncc3ccccc23)ccn1 [Example 89, N-(3-(4-cyclopropyl-4H-1,2,4-triazol-3-yl)phenyl)-4-(isoquinolin-4-yl)picolinamide] |
| 18 nM | CN(C)c1ccc(-c2ccnc(C(=O)Nc3cccc(-c4nncn4C4CC4)c3)c2)cn1 [Example 91, N-(3-(4-cyclopropyl-4H-1,2,4-triazol-3-yl)phenyl)-6-(dimethylamino)-3,4′-bipyridine-2′-carboxamide] |
| 13 nM | O=C(Nc1cccc(-c2nncn2C2CC2)c1)c1cc(-c2cnc3[nH]ccc3c2)ccn1 [Example 92, N-(3-(4-cyclopropyl-4H-1,2,4-triazol-3-yl)phenyl)-4-(1H-pyrrolo[2,3-b]pyridin-5-yl)picolinamide] |
| 43 nM | O=C(Nc1cccc(-c2nncn2C2CC2)c1)c1cc(-c2ccc(F)nc2)ccn1 [Example 93, N-(3-(4-cyclopropyl-4H-1,2,4-triazol-3-yl)phenyl)-6-fluoro-3,4′-bipyridine-2′-carboxamide] |
| 9 nM | CC(C)c1ccc(-c2ccnc(C(=O)Nc3cccc(-c4nncn4C4CC4)c3)c2)cn1 [Example 102, N-(3-(4-cyclopropyl-4H-1,2,4-triazol-3-yl)phenyl)-6-isopropyl-3,4′-bipyridine-2′-carboxamide] |
